In PMC3759991 (Clinical cancer research : an official journal of the …, 2012):
Where no end group is shown, it is not given here.

Experiments:
HLA-A*3301 = HLA-A*3301 (Homo sapiens, UniProt P04439, A270S/D185E/E176V/E277Q/E87N/F33T/G231S/H175R/I121M/I218V/I322F/K168Q/K210R/L300P/L318F/M331R/P217A/Q86R/Q94H/R138Q/T323A/T345S/T97I/V358M/Y195H); assay: competitive MHC allele binding assay, A*3301
HLA-A*3001 = HLA-A*3001 (Homo sapiens, UniProt P04439, D140H/D185E/E176W/F33S/G80R/H175R/K168Q/R138E/R41S); assay: competitive MHC allele binding assay, A*3001
HLA-A*1101 = HLA-A*1101 (Homo sapiens, UniProt P04439, A114D/D185E/E176A/F33Y/L180Q/S129P/T187R); assay: competitive MHC allele binding assay, A*1101
HLA-A*0301 = HLA-A*0301 (Homo sapiens, UniProt P04439); assay: competitive MHC allele binding assay, A*0301
HLA-A*6801 = HLA-A*6801 (Homo sapiens, UniProt P04439, A269V/D185E/E176V/E277Q/E87N/F33Y/G231S/I121M/I166T/I218V/L180W/L300P/L318F/N151K/P208A/P217A/Q86R/R169H/T345S); assay: competitive MHC allele binding assay, A*6801
HLA-A*3101 = HLA-A*3101 (Homo sapiens, UniProt P04439, A270S/D185E/E176V/E277Q/F33T/G231S/G80R/H175R/I121M/I218V/I322F/K168Q/L300P/L318F/M331R/P217A/Q94H/R138Q/T323A/T345S/T97I/V358M); assay: competitive MHC allele binding assay, A*3101

EVYEGVWKK [E225K-B WT]
IC50 (HLA-A*3301): 60 nM | IC50 (HLA-A*3001): > 70000 nM | IC50 (HLA-A*1101): 63 nM | IC50 (HLA-A*0301): 1070 nM | IC50 (HLA-A*6801): 10 nM | IC50 (HLA-A*3101): > 70000 nM

KLGGGQYGK [E255K-A]
IC50 (HLA-A*3301): > 70000 nM | IC50 (HLA-A*3001): 27800 nM | IC50 (HLA-A*1101): 1070 nM | IC50 (HLA-A*0301): 208 nM | IC50 (HLA-A*6801): 57100 nM | IC50 (HLA-A*3101): 31800 nM
